Patent US5688938A, “Calcium receptor-active molecules” (priority 1995, dated 1997)
“Also recorded” adds a separate entry of the source. Where two headings read alike, the source gives them in different places. Blank lines part the entries; values can stand above or below the compound they belong to.

Tests used:
[1] = biological target: T1, parathyroid cell calcium receptor (Bos taurus, UniProt P35384); test: cell-based; type: cell-based; conditions: for potentiation of mobilization of intracellular Ca^2+ elicited by extracellular divalent cations / change in [Ca^2+]i at low extracellular Ca^2+ / increase in [Ca^2+]i at intermediate extracellular Ca^2+: 100 μM; for change in [Ca^2+]i at low extracellular Ca^2+: 0.5 mM extracellular Ca^2+; for increase in [Ca^2+]i at intermediate extracellular Ca^2+: 1-[…] extracellular Ca^2+; for effect on intracellular Ca^2+: 500 μM
T1 sequence (P35384 21-1085 limits assumed): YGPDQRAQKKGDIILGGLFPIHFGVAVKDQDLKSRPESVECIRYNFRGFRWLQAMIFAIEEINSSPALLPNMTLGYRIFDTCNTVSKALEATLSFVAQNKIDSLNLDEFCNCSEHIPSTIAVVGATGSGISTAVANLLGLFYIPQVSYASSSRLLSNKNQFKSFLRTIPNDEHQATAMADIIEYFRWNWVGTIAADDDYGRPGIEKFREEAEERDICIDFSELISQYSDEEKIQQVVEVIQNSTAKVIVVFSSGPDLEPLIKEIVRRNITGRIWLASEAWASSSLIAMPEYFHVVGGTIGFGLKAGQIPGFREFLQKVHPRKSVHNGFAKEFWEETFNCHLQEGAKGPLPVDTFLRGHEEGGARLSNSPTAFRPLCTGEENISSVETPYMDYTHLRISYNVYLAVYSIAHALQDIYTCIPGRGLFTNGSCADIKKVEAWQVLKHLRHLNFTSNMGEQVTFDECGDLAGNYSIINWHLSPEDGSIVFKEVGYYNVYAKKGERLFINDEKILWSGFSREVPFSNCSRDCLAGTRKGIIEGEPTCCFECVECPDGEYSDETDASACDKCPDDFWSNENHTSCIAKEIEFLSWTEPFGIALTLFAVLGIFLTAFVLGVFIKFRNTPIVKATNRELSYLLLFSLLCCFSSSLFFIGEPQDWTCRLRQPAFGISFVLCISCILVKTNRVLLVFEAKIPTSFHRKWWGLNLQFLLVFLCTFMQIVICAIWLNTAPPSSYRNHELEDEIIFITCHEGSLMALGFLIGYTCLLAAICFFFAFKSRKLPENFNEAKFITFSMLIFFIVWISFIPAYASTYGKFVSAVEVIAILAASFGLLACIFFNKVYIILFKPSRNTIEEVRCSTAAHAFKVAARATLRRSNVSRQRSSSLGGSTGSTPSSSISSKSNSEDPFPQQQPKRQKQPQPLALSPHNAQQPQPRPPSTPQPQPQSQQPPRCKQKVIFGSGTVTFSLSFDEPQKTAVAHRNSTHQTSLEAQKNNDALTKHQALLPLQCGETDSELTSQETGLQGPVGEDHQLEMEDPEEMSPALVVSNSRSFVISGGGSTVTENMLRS

net positive charge = type: physicochemical; conditions: for Net (+) Charge: Table 1, at physiological pH
[2] = tested on: Ca^2+ influx in parathyroid cells; test: influx of extracellular Ca^2+ in bovine parathyroid cells; type: cell-based; conditions: for [Ca^2+]i: 100 to 1000 μM, 2 mM CaCl2; for effect on increases in [Ca^2+]i elicited by extracellular Ca^2+: pretreatment

Compound: N=C(N)NCCC[C@H](N)C(=O)NCCCNCCCNCCCCCNC(=O)[C@H](CC(N)=O)NC(=O)Cc1c[nH]c2cccc(O)c12 [Argiotoxin-659, reference compound]
EC50 [1]: 300 µM
increases in [Ca^2+]i ([1]; 100 to 300 μM): evoked transient increases in [Ca^2+ ]i
EC50 ([1]; EC50 for mobilizing intracellular Ca^2+, bovine parathyroid cells): 300 µM
Net (+) Charge (net positive charge): +4

Compound: NC[C@H]1O[C@H](O[C@H]2[C@H](O)[C@@H](O[C@H]3O[C@H](CO)[C@@H](O)[C@H](N)[C@H]3O)[C@H](N)C[C@@H]2N)[C@H](N)[C@@H](O)[C@@H]1O [Bekanamycin]
Net (+) Charge (net positive charge): +5
net positive charge at pH 7.3 (net positive charge): +5

potentiation of mobilization of intracellular Ca^2+ elicited by extracellular divalent cations [1]: potentiated the mobilization
change in [Ca^2+]i at low extracellular Ca^2+ [1]: evoked no change in [Ca^2+ ]i
increase in [Ca^2+]i at intermediate extracellular Ca^2+ [1]: small, but robust increase
Compound: COc1ccc(CCN(C)CCCC(C#N)(c2cc(OC)c(OC)c(OC)c2)C(C)C)cc1OC [Compound D-600, reference compound]
block of influx of extracellular Ca^2+ ([2]; 100 μM): blocked the influx

Net (+) Charge (net positive charge): +2
Compound: NCCCCCCCCCCCCN [DADD, 1,12-diaminododecane]
[Ca^2+]i [2]: prompt fall in [Ca^2+ ]i
effect on increases in [Ca^2+]i elicited by extracellular Ca^2+ [2]: depresses steady-state, but not transient increases in [Ca^2+ ]i

Compound: NC[C@H]1O[C@H](O[C@H]2[C@H](O)[C@@H](O[C@H]3O[C@H](CO)[C@@H](O)[C@H](N)[C@H]3O)[C@H](N)C[C@@H]2N)[C@H](O)[C@@H](O)[C@@H]1O [Kanamycin, reference compound]
effect on intracellular Ca^2+ [1]: without effect
net positive charge at pH 7.3 (net positive charge): ~+4.5

Net (+) Charge (net positive charge): +10
Compound: NCCCN(CCCN)CCCN(CCCN)CCCCN(CCCN)CCCN(CCCN)CCCN [NPS 381, N^1, N^1, N^5, N^10, N^14, N^14-hexakis-(3-aminopropyl) spermine]

Compound: NCCCN(CCCN)CCCNCCCCNCCCN(CCCN)CCCN [NPS 382, N^1, N^1, N^5, N^14, N^14-tetrakis-(3-aminopropyl)spermine]
Net (+) Charge (net positive charge): +8

Net (+) Charge (net positive charge): +8
Compound: NCCCN1CCCN(CCCN)CCN(CCCN)CCCN(CCCN)CC1 [NPS 383]

increase in [Ca^2+]i ([1]; 300 μM): did not evoke an increase in [Ca^2+ ]i
potentiation of transient increases in [Ca^2+]i ([1]; 300 μM): fails to do so
Compound: COc1ccc(CC(=O)NCCCCCCCCCCCCN)cc1OC [NPS 384]
block of influx of extracellular Ca^2+ ([2]; 300 μM): blocked influx of extracellular Ca^2+
[Ca^2+]i [2]: prompt fall in [Ca^2+ ]i
effect on increases in [Ca^2+]i elicited by extracellular Ca^2+ [2]: depresses steady-state, but not transient increases in [Ca^2+ ]i

Compound: [H]/N=C(/N)N[C@H]1[C@H](O)[C@@H](O)[C@H](O[C@@H]2O[C@@H](C)[C@](O)(C=O)[C@H]2O[C@@H]2O[C@@H](CO)[C@H](O)[C@@H](O)[C@@H]2NC)[C@@H](N/C(N)=N\[H])[C@@H]1O [Streptomycin]
Net (+) Charge (net positive charge): +3
net positive charge at pH 7.3 (net positive charge): +3

Net (+) Charge (net positive charge): +5
Compound: NCCNCCNCCNCCN [TEPA, Tetraethylenepentamine]

Net (+) Charge (net positive charge): +4
Compound: NCCNCCNCCN [TETA, Triethylenetramine]

change in [Ca^2+]i at low extracellular Ca^2+ [1]: evoked no change in [Ca^2+ ]i
increase in [Ca^2+]i at intermediate extracellular Ca^2+ [1]: small, but robust increase
Compound: CCN(CC)CCCCCCCCOC(=O)c1cc(OC)c(OC)c(OC)c1 [TMB-8, reference compound]
potentiation of mobilization of intracellular Ca^2+ elicited by extracellular divalent cations [1]: potentiated the mobilization; also recorded: potentiated transient increases in [Ca^2+ ]i
block of influx of extracellular Ca^2+ ([2]; 100 μM): blocked the influx

effect on intracellular Ca^2+ [1]: without effect
net positive charge at pH 7.3 (net positive charge): +1
Compound: CCC[C@@H]1C[C@@H](C(=O)N[C@@H]([C@H]2O[C@H](SC)[C@H](O)[C@@H](O)[C@H]2O)[C@@H](C)O)N(C)C1 [lincomycin, reference compound]

effect on basal [Ca^2+]i or increases evoked by extracellular Ca^2+ ([1]; 1 μM): None of the dihydropyridines tested
Compound: CCOC(=O)C1=C(C)NC(C)=C(C(=O)OC)C1c1cccc([N+](=O)[O-])c1 (stereo not shown) [nitrendipine, reference compound]

Compound: N[C@@H](Cn1oc(=O)[nH]c1=O)C(=O)O [quisqualate, reference compound]
response to mGluR agonists ([1]; bovine parathyroid cells, or Xenopus oocytes expressing calcium receptors): did not respond

Compound: Gentamicin
Net (+) Charge (net positive charge): +5
net positive charge at pH 7.3 (net positive charge): +5
